Data set [1] can be described thus: Final batch viscosity, Brookfield DV-I+ Viscometer. To be noted: 1.0% in cleansing composition; acceptable if at least twice the viscosity of Example 1. The class given is physicochemical. As for the experimental part:
After this mixture had cooled to a temperature not greater than 40° C., the following components were added sequentially thereto: 0.10 parts Tetrasodium EDTA, 0.05 parts Quaternium-15, and 1.9 parts Glycerin. After this solution mixture had cooled to room temperature (approximately 25° C.), the pH of the resulting solution was then adjusted with a 20% citric acid solution until a final pH of 6.0 to 6.6 was obtained. The batch weight of the solution was then adjusted with water in order to achieve a total formulation of 100 parts. Table 2 lists the final batch viscosity of each Example as measured by a Brookfield DV-I+Viscometer using the indicated spindle and speed.
The viscosity of the examples was considered acceptable if it was at least twice the viscosity of Example 1.

A short description of data set [2]: Foam Generation (Foam Tray Test). The class given is physicochemical. The note with it: 1.0% in cleansing composition; acceptable if at least twice the foam of Example 1. As for the experimental part: 1. Foam Generation: 1 g of a cleansing composition sample was added to a tray containing 5 liters of tap water, then gently mixed until homogenous without generating any foam. A Model AJMP14 Jiffy Mixer mechanical mixer available from U.S. Best, Inc. with an attached propeller blade was then set at a level in the tray such that the propeller blade was halfway immersed in the mixture. The mixer was then activated at a speed of 2000 RPM for 30 seconds to generate foam. Foam data was collected via photography using a Polaroid MP4+ camera at 30 seconds after the mixing was ceased. The area of foam in the tray was calculated and reported as % area of foam in tray.
Foam performance evaluation was then accomplished for each of the cleansing compositions of Examples 1-8.
Foaming of the Examples was considered acceptable if it was at least twice the amount of foam of Example 1.

For data set [3], the system named is subject's eye. Description: Ocular Irritancy Test (human ocular sting). The class given is in vivo. To be noted: 1.0% in mild cleansing composition. The protocol:
2. Ocular Irritancy Test: Using a double-blinded, randomized, two (2) cell study test design, one (1) drop of a sample (e.g. a 10% dilution of a cleansing composition in water) at a temperature of about 38° C. was instilled into a subject's eye. A new sterile disposable eyedropper was used for each sample and disposed of after being used on only one individual's eye. All instillations were performed either by an investigator or by a trained technician.
Within 30 seconds, or as closely as possible following instillation, the subject was asked to grade the perceived stinging sensation to the eye utilizing the following criteria:
After 15 minutes and 60 minutes post-instillation, the subject was again asked to grade the perceived stinging sensation to the eye. The data was collected from a balanced, complete block experiment then statistically analyzed.
The samples of Examples 1-8 were tested for ocular irritancy. The results are reported in Table 4 in terms of the percentage of subjects who found the respective sample to be stinging to their eyes.
A sample was considered to have low ocular irritancy if less than 20% of the people tested found the sample to sting their eyes.

For the substance Cocamide DEA [reference compound], the “Effect on viscosity of a mild cleansing composition” value (from here on “Effect on viscosity”) in data set [1] is listed as “effective at increasing the viscosity”. Also, in data set [2], the “Effect on foam generation in mild cleansing compositions” value (“Effect on foam generation” below) is “effective at increasing foam generation”. The “Mildness to the eye relative to Cocamide MIPA and Cocamide MEA” value in data set [3] is “significantly more mild to the eye”.

As for Cocamide MEA [reference compound], the “Effect on viscosity” value in data set [1] was “effective at increasing the viscosity”. The “Effect on foam generation” value in data set [2] was “effective at increasing foam generation”.

Regarding Cocamide MIPA [reference compound], in data set [1], the “Effect on viscosity” value was “effective at increasing the viscosity”. Further, the “Effect on foam generation” value in data set [2] is on record as “effective at increasing foam generation”.

On to PEG-3 Cocamide, for which, in data set [1], the “Effect on viscosity” value is “effective at increasing the viscosity”. Moreover, in data set [2], the “Effect on foam generation” value is given as “effective at increasing foam generation”. For the same substance, the “Mildness to the eye relative to Cocamide MIPA and Cocamide MEA” value in data set [3] was “significantly more mild to the eye”.

Take PEG-6 Lauramide: the “Effect on viscosity” value in data set [1] is “effective at increasing the viscosity”. Further, the “Effect on foam generation” value in data set [2] is reported as “effective at increasing foam generation”. Moreover, the “Mildness to the eye relative to Cocamide MIPA and Cocamide MEA” value in data set [3] is given as “significantly more mild to the eye”.

On to “polyethylene glycol (“PEG”)-6 Cocamide [PEG-6 Cocamide]”, for which, in data set [1], the “Effect on viscosity” value is “effective at increasing the viscosity”. In addition, the “Effect on foam generation” value in data set [2] is recorded as “effective at increasing foam generation”. For the same substance, the “Mildness to the eye relative to Cocamide MIPA and Cocamide MEA” value in data set [3] is reported as “significantly more mild to the eye”.

As for “polypropylene glycol (“PPG”)-2 Hydroxyethyl Cocamide [PPG-2 Hydroxyethyl Cocamide]”, the “Effect on viscosity” value in data set [1] is “effective at increasing the viscosity”. Also, the “Effect on foam generation” value in data set [2] is recorded as “effective at increasing foam generation”. Also, in data set [3], the “Mildness to the eye relative to Cocamide MIPA and Cocamide MEA” value is “significantly more mild to the eye”.

These data come from patent publication US6514918B1, “Viscous, mild, and effective cleansing compositions” (Johnson & Johnson Consumer Companies, Inc., priority 2000, dated 2003).
